Experimental data as given in US10597388B2, “Pyridazinone herbicides” (FMC CORPORATION, priority 2014, dated 2020).

How the values were obtained:
Assay type in all cases: in vivo
[1] = tested on: barnyardgrass (Echinochloa crus-galli); test: Test A greenhouse herbicide test, pre- and postemergence
Text: (§1) Seeds of plant species selected from barnyardgrass (Echinochloa crus-galli), kochia (Kochia scoparia), ragweed (common ragweed, Ambrosia elatior), ryegrass, Italian (Italian ryegrass, Lolium multiflorum), crabgrass, large (large crabgrass, Digitaria sanguinalis), foxtail, giant (giant foxtail, Setaria faberii), momingglory (Ipomoea spp.), pigweed (Amaranthus retroflexus), velvetleaf (Abutilon theophrasti), wheat (Triticum aestivum), and corn (Zea mays) were planted into a blend of loam soil and sand and treated preemergence with a directed soil spray using test chemicals formulated in a non-phytotoxic solvent mixture which included a surfactant.
(§2) At the same time, plants selected from these crop and weed species and also blackgrass (Alopecurus myosuroides), and galium (catchweed bedstraw, Galium aparine) were planted in pots containing the same blend of loam soil and sand and treated with postemergence applications of test chemicals formulated in the same manner. Plants ranged in height from 2 to 10 cm and were in the one- to two-leaf stage for the postemergence treatment. Treated plants and untreated controls were maintained in a greenhouse for approximately 10 d, after which time all treated plants were compared to untreated controls and visually evaluated for injury. Plant response ratings, summarized in Table A, are based on a 0 to 100 scale where 0 is no effect and 100 is complete control. A dash (-) response means no test result.

[2] = tested on: corn (Zea mays); test: as above; settings: Postemergence
Text: as §1, §2

[3] = tested on: foxtail, giant (giant foxtail, Setaria faberii); test: as above
Text: as §1, §2

[4] = tested on: kochia (Kochia scoparia); test: as above
Text: as §1, §2

[5] = tested on: pigweed (Amaranthus retroflexus); test: as above
Text: as §1, §2

[6] = tested on: ragweed (common ragweed, Ambrosia elatior); test: as above
Text: as §1, §2

[7] = tested on: ryegrass, Italian (Italian ryegrass, Lolium multiflorum); test: as above
Text: as §1, §2

[8] = tested on: wheat (Triticum aestivum); test: as above; settings: Postemergence
Text: as §1, §2

[9] = tested on: blackgrass (Alopecurus myosuroides); test: Test A greenhouse herbicide test, postemergence
Text: as §2

[10] = tested on: galium (catchweed bedstraw, Galium aparine); test: Test A greenhouse herbicide test, postemergence
Text: as §2

[11] = Postemergence, 125 g ai/ha, 0 to 100 scale where 0 is no effect and 100 is complete control
[12] = Postemergence, 500 g ai/ha, 0 to 100 scale, 0 is no effect, 100 is complete control
[13] = Preemergence, 125 g ai/ha, 0 to 100 scale where 0 is no effect and 100 is complete control
[14] = Preemergence, 500 g ai/ha, 0 to 100 scale where 0 is no effect and 100 is complete control
[15] = 125 g ai/ha, 0 to 100 scale where 0 is no effect and 100 is complete control
[16] = 500 g ai/ha, 0 to 100 scale, 0 is no effect, 100 is complete control
[17] = Postemergence, 500 g ai/ha, visual rating after approx. 10 d, 0 to 100 scale (0 no effect, 100 complete control)
[18] = 500 g ai/ha, visual rating after approx. 10 d, 0 to 100 scale (0 no effect, 100 complete control)

Compound | Plant response rating, Barnyardgrass [1, 11] | Barnyardgrass plant response rating [1, 13] | Plant response rating, Barnyardgrass [1, 14] | Plant response rating, Corn [2, 15] | Plant response rating, Foxtail, Giant [3, 11] | Foxtail, Giant plant response rating [3, 13] | Plant response rating, Foxtail, Giant [3, 14] | Plant response rating, Kochia [4, 11] | Kochia plant response rating [4, 13] | Plant response rating, Kochia [4, 14] | Plant response rating, Pigweed [5, 11] | Pigweed plant response rating [5, 13] | Plant response rating, Pigweed [5, 14] | Plant response rating, Ragweed [6, 11] | Ragweed plant response rating [6, 13] | Plant response rating, Ragweed [6, 14] | Plant response rating, Ryegrass, Italian [7, 11] | Ryegrass, Italian plant response rating [7, 13] | Plant response rating, Ryegrass, Italian [7, 14] | Plant response rating, Wheat [8, 15] | further results
Cc1nn(C)c(=O)c(-c2c(Cl)n(C)c3ccccc23)c1O [Compound 95] | 0 | 0 | 0 | 0 | 0 | 0 | 0 | 0 | 0 | 10 | 0 | 0 | 20 | 0 | 0 | 20 | 10 | 10 | 60 | 0 | Barnyardgrass plant response rating [1, 12]: 10; Corn plant response rating [2, 16]: 0; Foxtail, Giant plant response rating [3, 12]: 0; Kochia plant response rating [4, 12]: 10; Pigweed plant response rating [5, 12]: 0; Ragweed plant response rating [6, 12]: 10; Ryegrass, Italian plant response rating [7, 12]: 50; Wheat plant response rating [8, 16]: 0; Plant response rating, Blackgrass [9, 15]: 0; Blackgrass plant response rating [9, 16]: 10; Plant response rating, Galium [10, 15]: 20; Galium plant response rating [10, 16]: 60
CC(=O)Oc1cnn(C)c(=O)c1-c1c(C)sc2ccccc12 [Compound 120] | 0 | 0 | 30 | 0 | 0 | 0 | 20 | 0 | 0 | 0 | 20 | 0 | 70 | 0 | 0 | 30 | 20 | 30 | 30 | 0 | Plant response rating, Barnyardgrass [1, 17]: 10; Plant response rating, Corn [2, 18]: 0; Plant response rating, Foxtail, Giant [3, 17]: 10; Plant response rating, Kochia [4, 17]: 30; Plant response rating, Pigweed [5, 17]: 50; Plant response rating, Ragweed [6, 17]: 10; Plant response rating, Ryegrass, Italian [7, 17]: 80; Plant response rating, Wheat [8, 18]: 0; Plant response rating, Blackgrass [9, 15]: 0; Plant response rating, Blackgrass [9, 18]: 10; Plant response rating, Galium [10, 15]: 40; Plant response rating, Galium [10, 18]: 70
